From PubChem BioAssay AID1259407 (Chemical Carcinogenesis Research Information System (CCRIS), 2018) come the findings set out here.

The structures appear in SMILES notation. Activity calls are given as the source filed them. The rule behind the calls is not given here.

This series deals with CCRIS mutagenicity, Ames/micronucleus/aberration tests. Kind of series: CCRIS mutagenicity studies.
Where [1] appears, read: Test System: AMES SALMONELLA TYPHIMURIUM, Strain/Indicator: TA98, Metabolic Activation: HAMSTER, LIVER, S-9, AROCLOR 1254 (30%), Method: PREINCUBATION
Setting [2] is: Test System: AMES SALMONELLA TYPHIMURIUM, Strain/Indicator: TA98, Metabolic Activation: NONE, Method: PREINCUBATION
[3] abbreviates: Test System: AMES SALMONELLA TYPHIMURIUM, Strain/Indicator: TA98, Metabolic Activation: RAT, LIVER, S-9, AROCLOR 1254 (30%), Method: PREINCUBATION
Setting [4] is: Test System: AMES SALMONELLA TYPHIMURIUM, Strain/Indicator: TA100, Metabolic Activation: HAMSTER, LIVER, S-9, AROCLOR 1254 (30%), Method: PREINCUBATION
Where [5] appears, read: Test System: AMES SALMONELLA TYPHIMURIUM, Strain/Indicator: TA100, Metabolic Activation: NONE, Method: PREINCUBATION
[6] abbreviates: Test System: AMES SALMONELLA TYPHIMURIUM, Strain/Indicator: TA100, Metabolic Activation: NONE, Method: STANDARD PLATE.
Setting [7] is: Test System: AMES SALMONELLA TYPHIMURIUM, Strain/Indicator: TA100, Metabolic Activation: RAT, LIVER, S-9, AROCLOR 1254 (30%), Method: PREINCUBATION
Where [8] appears, read: Test System: AMES SALMONELLA TYPHIMURIUM, Strain/Indicator: TA1535, Metabolic Activation: NONE, Method: PREINCUBATION

`ClCBr`: the mutagenic call is “active; positive” (Test System: AMES SALMONELLA TYPHIMURIUM, Strain/Indicator: TA97, Metabolic Activation: NONE, Method: STANDARD PLATE); “active; positive” (Test System: AMES SALMONELLA TYPHIMURIUM, Strain/Indicator: TA97, Metabolic Activation: RAT, LIVER, S-9, AROCLOR 1254, Method: STANDARD PLATE); “active; positive” under setting [1]; “active; positive” under setting [2]; “active; positive” (Test System: AMES SALMONELLA TYPHIMURIUM, Strain/Indicator: TA98, Metabolic Activation: NONE, Method: STANDARD PLATE); “active; positive” under setting [3]. The mutagenic call runs as follows: (Test System: AMES SALMONELLA TYPHIMURIUM, Strain/Indicator: TA98, Metabolic Activation: RAT, LIVER, S-9, AROCLOR 1254, Method: STANDARD PLATE) “active; positive”; under setting [4], “active; positive”; (Test System: AMES SALMONELLA TYPHIMURIUM, Strain/Indicator: TA100, Metabolic Activation: NONE, Method: DESICCATOR) “active; positive”; under setting [5], “active; positive”; under setting [6], “active; positive”; under setting [7], “active; positive”. For the same compound, the mutagenic call is, setting by setting: (Test System: AMES SALMONELLA TYPHIMURIUM, Strain/Indicator: TA100, Metabolic Activation: RAT, LIVER, S-9, AROCLOR 1254, Method: STANDARD PLATE) “active; positive”; (Test System: AMES SALMONELLA TYPHIMURIUM, Strain/Indicator: TA104, Metabolic Activation: NONE, Method: STANDARD PLATE) “active; positive”; (Test System: AMES SALMONELLA TYPHIMURIUM, Strain/Indicator: TA104, Metabolic Activation: RAT, LIVER, S-9, AROCLOR 1254, Method: STANDARD PLATE) “inactive; negative”.

Take `CCN(N=O)C(N)=O`: the mutagenic call reads like this: (End Point: IN VITRO CHROMOSOMAL ABERRATIONS, Test System: CHINESE HAMSTER V79-E CELLS, Metabolic Activation: NONE) “inactive; negative”; (End Point: IN VITRO MICRONUCLEUS, Test System: CHL/IU CELLS, Metabolic Activation: NONE) “active; positive”; (End Point: IN VIVO MICRONUCLEUS, Test System: BLOOD ERYTHROCYTES, Species: MOUSE, Strain/Sex: CD-1/MALE, Route: ORAL) “active; positive”; under setting [1], “active; positive”; under setting [2], “active; positive”; under setting [3], “active; positive”. For the same compound, the mutagenic call runs as follows: under setting [4], “active; positive”; under setting [5], “active; positive”; under setting [6], “active; positive”; under setting [7], “active; positive”; (Test System: AMES SALMONELLA TYPHIMURIUM, Strain/Indicator: TA100, Metabolic Activation: RAT, LIVER, S-9, AROCLOR 1254, Method: PREINCUBATION) “active; positive”; (Test System: AMES SALMONELLA TYPHIMURIUM, Strain/Indicator: TA102, Metabolic Activation: RAT, LIVER, S-9, AROCLOR 1254, Method: PREINCUBATION) “active; positive”. Further, the mutagenic call is, setting by setting: (Test System: AMES SALMONELLA TYPHIMURIUM, Strain/Indicator: TA104, Metabolic Activation: RAT, LIVER, S-9, AROCLOR 1254, Method: PREINCUBATION) “active; positive”; (Test System: AMES SALMONELLA TYPHIMURIUM, Strain/Indicator: TA1535, Metabolic Activation: NONE) “active; positive”; under setting [8], “active; positive”; (Test System: AMES SALMONELLA TYPHIMURIUM, Strain/Indicator: TA1535, Metabolic Activation: RAT, LIVER, S-9, AROCLOR 1254, Method: STANDARD PLATE) “active; positive”; (Test System: AMES SALMONELLA TYPHIMURIUM, Strain/Indicator: YG7104, Metabolic Activation: NONE, Method: PREINCUBATION) “active; positive”; (Test System: AMES SALMONELLA TYPHIMURIUM, Strain/Indicator: YG7108, Metabolic Activation: NONE, Method: PREINCUBATION) “active; positive”. The mutagenic call is, setting by setting: (Test System: AMES SALMONELLA TYPHIMURIUM, Strain/Indicator: YG7112, Metabolic Activation: NONE, Method: PREINCUBATION) “active; positive”; (Test System: AMES SALMONELLA TYPHIMURIUM, Strain/Indicator: YG7113, Metabolic Activation: NONE, Method: PREINCUBATION) “active; positive”; (Test System: CHINESE HAMSTER OVARY, Strain/Indicator: CHO-K1-BH4 (HGPRT), Metabolic Activation: NONE, Method: STANDARD PLATE) “active; positive”; (Test System: CHINESE HAMSTER V-79, Strain/Indicator: V-79/6-THIOGUANINE, Metabolic Activation: NONE, Method: FLASK ASSAY) “active; positive”; (Test System: E. COLI B, Strain/Indicator: H/R30R, Metabolic Activation: NONE) “active; positive”; (Test System: E. COLI B, Strain/Indicator: HS30R, Metabolic Activation: NONE) “active; positive”. For the same compound, the mutagenic call is “active; positive” (Test System: E. COLI, Strain/Indicator: WP2, Metabolic Activation: NONE, Method: STANDARD PLATE); “active; positive” (Test System: E. COLI, Strain/Indicator: WP2 UVRA, Metabolic Activation: NONE, Method: STANDARD PLATE); “active; positive” (Test System: LacZ plasmid mouse (C57BL/6J transgenic), Strain/Indicator: LacZ Mutant frequency, Method: Bone marrow and liver harvested 35 days after last dose); “active; positive” (Test System: LacZ transgenic mouse (Muta Mouse), Strain/Indicator: LacZ Mutant frequency, Method: Bone marrow and liver harvested 35 days after last dose); “active; positive” (Test System: MOUSE LYMPHOMA, Strain/Indicator: L5178Y(TK+/TK-), Metabolic Activation: NONE, Method: MICROWELL); “active; positive” (Test System: UDS HUMAN FIBROBLASTS, Strain/Indicator: THY INCORP (NON-S-PHASE), Metabolic Activation: NONE, Method: LIQUID SCINTILLATION COUNTING). Also, the mutagenic call was “active; positive” (Test System: UDS HUMAN TRACHEAL EPITHELIAL CELLS, Strain/Indicator: THY INCORP, Metabolic Activation: NONE, Method: AUTORADIOGRAPHY) and “active; positive” (Test System: UDS MOUSE SPERMATOGONIAL AND POSTSPERMATOGONIAL CELLS IN VIVO, Strain/Indicator: THYMIDINE INCORPORATION, Metabolic Activation: NONE, Method: AUTORADIOGRAPHY).

As for `O=[N+]([O-])c1ccccc1O`, the mutagenic call was “inactive; negative” (Test System: AMES SALMONELLA TYPHIMURIUM, Strain/Indicator: TA98, Metabolic Activation: HAMSTER, LIVER, S-9, AROCLOR 1254, FLAVIN MONONUCLEOTIDE, Method: PREINCUBATION); “inactive; negative” under setting [2]; “inactive; negative” (Test System: AMES SALMONELLA TYPHIMURIUM, Strain/Indicator: TA98, Metabolic Activation: RAT, LIVER, S-9, KANECHLOR 500, Method: PREINCUBATION); “inactive; negative” (Test System: AMES SALMONELLA TYPHIMURIUM, Strain/Indicator: TA98, Method: PREINCUBATION); “inactive; negative” (Test System: AMES SALMONELLA TYPHIMURIUM, Strain/Indicator: TA100, Metabolic Activation: HAMSTER, LIVER, S-9, AROCLOR 1254, FLAVIN MONONUCLEOTIDE, Method: PREINCUBATION); “inactive; negative” under setting [5]. The mutagenic call runs as follows: (Test System: AMES SALMONELLA TYPHIMURIUM, Strain/Indicator: TA100, Metabolic Activation: RAT, LIVER, S-9, KANECHLOR 500, Method: PREINCUBATION) “inactive; negative”; (Test System: AMES SALMONELLA TYPHIMURIUM, Strain/Indicator: TA100, Method: PREINCUBATION) “inactive; negative”; under setting [8], “inactive; negative”; (Test System: AMES SALMONELLA TYPHIMURIUM, Strain/Indicator: TA1535, Method: PREINCUBATION) “inactive; negative”; (Test System: AMES SALMONELLA TYPHIMURIUM, Strain/Indicator: TA1537, Metabolic Activation: NONE, Method: PREINCUBATION) “inactive; negative”; (Test System: AMES SALMONELLA TYPHIMURIUM, Strain/Indicator: TA1537, Method: PREINCUBATION) “inactive; negative”. The mutagenic call is “inactive; negative” (Test System: AMES SALMONELLA TYPHIMURIUM, Strain/Indicator: TA1538, Metabolic Activation: NONE, Method: PREINCUBATION) and “inactive; negative” (Test System: AMES SALMONELLA TYPHIMURIUM, Strain/Indicator: TA1538, Method: PREINCUBATION).
